Starred links: 1 amine or outer side, 2 acyl side, 3 side chain; linkers in the order of their positions; H or OH if unused. Non-standard residues stand in square brackets, D forms with d. Residues, ends and D or L forms follow the SMILES beside them. *: point of attachment. Sta = CC(C)C[C@H](N)[C@@H](O)CC(=O)O; X2 = CC(C)CC(N[*:1])C(O)CC(=O)[*:2]; NMe2Val = CC(C)[C@@H](C(=O)*)N(C)C; dNMeF = CN[C@H](Cc1ccccc1)C(=O)O; NMeF = CN[CH](Cc1ccccc1)C(=O)O; NMeQ = CN[CH](CCC(N)=O)C(=O)O; dHiv = CC(C)[C@@H](O)C(=O)O; Hiv = CC(C)[C@H](O)C(=O)O; Isovaleryl = CC(C)CC(=O)*; X1 = CCC(C)C(O)C(=O)*
How the values were obtained:
MCF7 cells [1] = assay: Cellular uptake and inhibition of cellular cathepsins, treated cells then lysed, cathepsin D/E substrate; type: cell-based
Experimental: MCF7 cells were cultured in Dulbecco's Modified Eagle Medium (DMEM, Invitrogen) containing 10% fetal bovine serum (FBS, HyClone, Logan, Utah), in a humidified atmosphere containing 5% CO2 at 37° C. Briefly, MCF7 cells were seeded into 24-well plates. […] After 1 h incubation the medium was removed and the cells were trypsinized for 10 min, before being collected by centrifugation and lysed with NP-40 lysis buffer (1% NP-40, 50 mM NaOAc, pH 4.0). The lysate (50 μL) from each well was incubated at 37° C. with 10 μM Mca-[…]Dnp)-D-Arg-NH2 (the same substrate used for cathepsin D and E in other assays) in 50 mM NaOAc (pH 4.0, total volume 100 μL). The reaction was monitored by measuring the increase in fluorescence (λex=320 nm, λem=405 nm).
After this time, cells were washed, lysed and then the protease activity of the lysate was measured with a fluorogenic cathepsin D/E substrate (see FIG. 9A).

[2] = test system: human peripheral blood mononuclear cells (PBMCs); assay: Antigen-stimulated T cell proliferation in PBMCs (flow cytometry, CD3+ gate); type: cell-based; conditions: same experiment, PBMC
Experimental: PBMCs were isolated from buffy coats (leukopac, PBL) obtained from Lifesouth Community Blood Center (Gainesville, Fla., USA) by Ficoll-Hypaque density gradient centrifugation using Lymphoprep (Axis-Shield, Norway). Briefly, the contents of the buffy coat were diluted to three times its volume in sterile 1×PBS pH 7.4 (Gibco, California, USA). The dilution was layered onto the Lymphoprep in a 2:1 ratio. The sample was then centrifuged for 25 min at room temperature and 250 g. The PBMCs were collected at the interface, washed twice with PBS and centrifuged each time for 10 min at 4° C. and 250 g. Cell viability was assessed by trypan blue exclusion. […]
Experimental pelleted cells were incubated for 30 min at 4° C. with antibodies and washed with staining buffer (PBS+2% BSA+0.1% Na azide). […] Quantitation was carried out using FCS Express (version 3, De Novo Software, Los Angeles, Calif.) by gating for lymphocytes based on forward and side scatter properties followed by analysis of the percentages of positively stained quadrants. 50,000 cells were analyzed for each sample and isotype-specific immunoglobulin controls were run for each fluorochrome. […]

[3] = test system: TH cells induced by allogeneic activated DC; assay: Allogeneic mixed lymphocyte reaction, DCs and TH cells from different donors; type: cell-based, human; conditions: allogeneic MLR
cathepsin E = molecular target: T1, cathepsin E (Homo sapiens, UniProt P14091); assay: Protease inhibition screen and dose-response assay; type: biochemical; conditions: 10 μM
T1 construct: Reaction Biology Corp. (ran the assay)
T1 sequence (P14091 54-396): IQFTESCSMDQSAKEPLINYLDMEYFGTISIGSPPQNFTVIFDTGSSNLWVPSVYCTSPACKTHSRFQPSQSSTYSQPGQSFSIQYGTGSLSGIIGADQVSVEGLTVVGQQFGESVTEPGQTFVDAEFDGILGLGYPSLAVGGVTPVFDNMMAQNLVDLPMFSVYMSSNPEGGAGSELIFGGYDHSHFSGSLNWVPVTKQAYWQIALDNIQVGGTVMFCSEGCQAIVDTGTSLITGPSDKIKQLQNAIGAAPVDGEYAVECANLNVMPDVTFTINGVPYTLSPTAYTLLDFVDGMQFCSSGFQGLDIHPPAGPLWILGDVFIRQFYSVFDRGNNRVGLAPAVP
Experimental: (§1) After incubation at room temperature for 10-15 min, the substrate was added, after which fluorescence at each relevant Ex/Em wavelength was measured every 5 min for 2 h. The substrate alone in the reaction buffer served as background. […] Each enzyme assay was performed in duplicate by Reaction Biology Corp. (Malvern, Pa.).
(§2) Assays were carried out by Reaction Biology Corp. (Malvern, Pa.). Enzyme activity (in %), calculated as above, was used to determine IC50 values with non-linear regression in GraphPad Prism (GraphPad Software, Inc., La Jolla, Calif.).

cathepsin D = molecular target: T2, cathepsin D (Homo sapiens, UniProt P07339); type: biochemical; conditions: 10 μM
T2 construct: Reaction Biology Corp. (ran the assay)
Experimental: as §1, §2

[4] = Solubility in DMSO for dilution series; type: physicochemical
MCF7 cells [5] = conditions: literature (Zaidi et al. 2007); cited from earlier work

T2 sequence (P07339 65-412): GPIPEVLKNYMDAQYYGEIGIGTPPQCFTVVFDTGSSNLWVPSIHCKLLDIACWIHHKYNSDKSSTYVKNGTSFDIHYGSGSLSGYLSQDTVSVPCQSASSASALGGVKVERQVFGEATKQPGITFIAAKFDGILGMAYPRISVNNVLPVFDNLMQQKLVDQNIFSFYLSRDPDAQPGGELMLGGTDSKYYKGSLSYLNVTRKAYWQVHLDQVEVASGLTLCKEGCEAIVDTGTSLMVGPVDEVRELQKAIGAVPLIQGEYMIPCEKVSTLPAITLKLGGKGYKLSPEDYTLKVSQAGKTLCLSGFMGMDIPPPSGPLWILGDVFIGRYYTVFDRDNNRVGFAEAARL

With `COC(=O)[C@@H]1CCCN1C(=O)[C@@H](Cc1ccccc1)N(C)C(=O)[C@H](C)NC(=O)[C@@H](NC(=O)C[C@H](O)[C@H](CC(C)C)NC(=O)[C@H](CC(N)=O)NC(=O)[C@H](CC(C)C)NC(=O)[C@H](OC(=O)[C@@H](OC(=O)[C@H](C(C)C)N(C)C)C(C)C)C(C)C)[C@@H](C)O` [Compound 1, grassystatin A] (NMe2Val-[Hiv][dHiv]LN[Sta]TA[dNMeF]P-OMe) the “ability to enter cells” value (MCF7 cells [1]; MCF7 cells, inferred from cellular vs lysate IC50) was “more efficiently enter cells than pepstatin A”, the T cell viability [2] was “unaffected” and the DC stimulated proliferation [3] was “no effect”. The “inhibitory activity in protease panel” value (cathepsin E) was “active” and the “inhibitory activity in protease panel” value (cathepsin D) was “active”.
For `CCC(C)C(O)C(=O)NC(CC(C)C)C(=O)N(C)C(CCC(N)=O)C(=O)NC(CC(C)C)C(O)CC(=O)NC(C(=O)NCC(=O)N(C)C(Cc1ccccc1)C(=O)N1CCCC1C(=O)OC)C(C)CC` (centres unmarked) [Compound 3, grassystatin C] (X1-L[NMeQ][X2]IG[NMeF]P-OMe; configuration not given here), the “solubility in DMSO” value [4] was “insoluble”.
In the case of `CC(C)CC(=O)N[C@H](C(=O)N[C@H](C(=O)N[C@@H](CC(C)C)[C@@H](O)CC(=O)N[C@@H](C)C(=O)N[C@@H](CC(C)C)[C@@H](O)CC(=O)O)C(C)C)C(C)C` [pepstatin A, reference compound] (Isovaleryl-VV[Sta]A[Sta]-OH), the “apparent IC50 in a cellular system” value (MCF7 cells [1]; MCF7 cells treated 1 h, lysate protease activity) is given as “fairly similar” and the cell permeability (MCF7 cells [5]) is given as “poor cell permeability”.

Reference: patent publication US8569245B2, “Protease inhibitors, compositions and methods of use” (University of Florida Research Foundation, Inc., priority 2009, dated 2013)
